For eight compounds, GI50 and TGI results are on record in PubChem BioAssay (NCI).

Several values for one entry are separate records, joined by “and”; a condition that tells them apart may be missing. Equal values may be shown once.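 Following 48 hours of exposure in 96-well plates, responses at five concentrations were used to interpolate endpoints linearly. The concentration for 50% growth inhibition is given as GI50. TGI is the concentration that stops growth completely.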 Bounds are passed on as bounds.

Common to all, as to assay: NCI-60 cell line screen, 48 h
Assay [1] concerns HL-60(TB) leukemia.
Assay [2] has as its system SK-MEL-28 melanoma.
Assay [3] concerns HS 578T breast.
In assay [4] the test system is MDA-MB-231 breast.
The subject of assay [5] is OVCAR-4 ovarian.
Assay [6] deals with NCI-H226 lung.
In assay [7] the test system is UO-31 renal.
In assay [8] the test system is HOP-92 NSCLC.
For assay [9], the system named is NCI/ADR-RES ovarian.
Assay [10] concerns SNB-75 CNS.

`CC(C)NC[C@@H](C(=O)N1CCN(c2ncnc3c2[C@H](C)C[C@H]3O)CC1)c1ccc(Cl)cc1`: the GI50 in [1] is > 10 µM and 39.4 µM; in [2], > 10 µM and 36.6 µM; in assay [3], 1 µM and 0.657 µM; in assay [4], > 69 µM; in [5], > 74 µM; in assay [6] it was 5.16 µM and 13.3 µM. Further, the GI50 in assay [7] was 6.57 µM and 16.2 µM; in [8], 0.407 µM and 1.13 µM; in assay [9], > 100 µM; in assay [10], 0.285 µM and 0.213 µM. The TGI is > 100 µM in assay [1]; > 100 µM in [2]; > 10 µM and 18.4 µM in [3]; > 100 µM in assay [4]; > 100 µM in assay [5]; > 100 µM in assay [6]. The TGI is > 87.3 µM in assay [7]; 6.8 µM and 11.6 µM in assay [8]; > 100 µM in assay [9]; > 10 µM and 5.44 µM in assay [10].
Turning to `COc1cc(Cl)cc(-c2nn(C(=O)NCCN3CCOCC3)cc2-c2ccncc2)c1`, the GI50 in assay [1] is 3.22 µM; in assay [2], 4.6 µM; in assay [3] it was 6.38 µM; in assay [4] it was 13 µM; in assay [5] it was 12.6 µM; in [6], 7.2 µM. In addition, the GI50 in assay [7] was 3.85 µM; in assay [8], 4.35 µM; in [9], 2.87 µM; in [10] it was 1.73 µM. Besides, the TGI in assay [1] is 95.1 µM; in assay [2], 66 µM; in [3], 41 µM; in assay [4], > 100 µM; in [5], > 100 µM; in assay [6], 48.9 µM. Besides, the TGI was 64.6 µM in assay [7], 84.6 µM in [8], > 100 µM in [9] and 8.78 µM in [10].
For the compound `COc1cc(C2c3cc4c(cc3[C@@H](Nc3ccc(C#N)cc3)C3COC(=O)[C@H]23)OCO4)cc(OC)c1O` (stereo not given in full), the TGI in assay [1] was 1.12 µM and 0.702 µM; in assay [2], 28.2 µM and > 100 µM; in [3], 29.1 µM and > 100 µM; in assay [4], 25.6 µM and > 100 µM; in assay [5], 19.2 µM; in assay [6], 3.46 µM and 1.43 µM and 2.06 µM. For the same compound, the TGI in assay [7] was 7.14 µM and 5.42 µM and 2.64 µM; in assay [8] it was 6.77 µM and 5.99 µM; in assay [9] it was 11.6 µM and 41.3 µM and 21.2 µM; in assay [10] it was 42.6 µM and 56.3 µM. The GI50 was 2.89 µM in [2]; 3.38 µM in [3]; 3.34 µM in assay [4]; 0.239 µM and 0.242 µM in assay [6]; 0.26 µM and 0.968 µM in [7]; 0.685 µM in assay [8]. The GI50 was 6.59 µM and 2.68 µM in assay [9]; 0.787 µM in [10].
Take `O=C(Cn1ccc(=O)[nH]c1=O)Nc1ccc(C(=O)O)c(O)c1`: the TGI in [1], in assay [2], in [3], in assay [4], in assay [5] and in assay [6] was > 100 µM in each case. The TGI in [7], in [8], in assay [9] and in assay [10] was > 100 µM each time.
Regarding `O=CNc1c(Cl)cc2c(c1Cl)Cc1cc([N+](=O)[O-])ccc1-2`, the GI50 was 3.21 µM in [1]; 20.2 µM in assay [2]; 1.77 µM in assay [3]; 8.16 µM in [4]; 6.11 µM in assay [5]; 4.21 µM in assay [6]. For the same compound, the GI50 in [7] was 1.81 µM; in assay [8], 6.73 µM; in assay [9] it was 4.49 µM; in assay [10], 2.84 µM. Also, the TGI in assay [1] was > 100 µM; in [2], > 100 µM; in assay [3] it was 14.4 µM; in assay [4] it was 47.7 µM; in assay [5], > 100 µM; in assay [6] it was > 94.1 µM. The TGI in assay [7] was 29.3 µM; in assay [8], > 100 µM; in [9] it was 38.3 µM; in [10], 21.5 µM.
As for `O=C1OC(=O)C(c2c[nH]c3ccccc23)=C1c1c[nH]c2ccccc12`, the GI50 in assay [1] is > 25 µM; in assay [2], > 25 µM; in assay [3], > 25 µM; in assay [4] it was 14.5 µM; in [5], > 25 µM; in assay [6], > 25 µM. The GI50 was 8.73 µM in [7], > 25 µM in assay [9] and > 25 µM in assay [10]. For the same compound, the TGI in [1], in [2], in [3], in assay [4], in [5] and in assay [6] was > 25 µM each time. Further, the TGI in assay [7], in assay [9] and in assay [10] was > 25 µM each time.
Turning to `CCN(Cc1ccc(F)c(F)c1)c1ccc(CO)c(Cl)c1`, the GI50 was 5.42 µM in assay [1]; 12.4 µM in assay [2]; 12.4 µM in assay [3]; 12.8 µM in [4]; 0.18 µM in [5]; 2.7 µM in assay [7]. Also, the GI50 in assay [8] is 0.835 µM; in assay [9], 11.4 µM; in assay [10] it was 2.99 µM. Also, the TGI stood at 29.3 µM in assay [1]; 25.1 µM in [2]; 40 µM in assay [3]; 26.6 µM in assay [4]; 1.46 µM in [5]; 19.2 µM in assay [7]. Moreover, the TGI was 12.2 µM in assay [8], 27.4 µM in assay [9] and 19.5 µM in [10].
As for `CC1SC(c2c(Cl)cccc2Cl)N(NC(=O)c2[nH]c3ccc(F)cc3c2-c2ccccc2)C1=O` (stereo not given), the GI50 in assay [1] is 67.5 µM; in assay [2], 3.57 µM; in assay [3] it was 1.93 µM; in [4] it was 2.13 µM; in assay [5] it was 1.69 µM; in assay [7], 2.13 µM. The GI50 is 2.05 µM in [9] and 1.43 µM in assay [10]. Besides, the TGI in assay [1] was > 100 µM; in [2], 17.2 µM; in assay [3], 4.38 µM; in [4], 4.28 µM; in assay [5], 3.4 µM; in assay [7], 8.61 µM. Further, the TGI in assay [9] amounted to 4.8 µM; in assay [10] it was 3.27 µM.
